In DBAASP:
In brackets after ≈: the same amount, converted by molar mass.

How the values were obtained:
Assay in all cases: ≥ marks a high value that may be exact or a test limit, other limits are often not marked, values filed in µg/mL are converted to µM
[1] = tested on: Candida albicans ATCC 2002
[2] = tested on: Enterobacter cloacae ATCC 13047
[3] = tested on: Enterococcus faecalis ATCC 29212
Escherichia coli 37 = tested on: Escherichia coli 37
[4] = tested on: Escherichia coli ATCC 25922
[5] = tested on: Klebsiella pneumoniae ATCC 700603
Klebsiella pneumoniae = tested on: Klebsiella pneumoniae
[6] = tested on: Pseudomonas aeruginosa ATCC 27853
[7] = tested on: Pseudomonas aeruginosa CMCCB 1010
Pseudomonas aeruginosa = tested on: Pseudomonas aeruginosa
Shigella dysenteriae = tested on: Shigella dysenteriae
Staphylococcus aureus 10 = tested on: Staphylococcus aureus 10
[8] = tested on: Staphylococcus aureus ATCC 25923
[9] = tested on: Bacillus magaterium AB90008
[10] = tested on: Candida tropicalis AY91009
[11] = tested on: Enterobacter cloacae AB2010162
Enterococcus sp. S13 = tested on: Enterococcus sp. S13
[12] = tested on: Escherichia coli DH5alpha
[13] = tested on: Klebsiella oxytoca AB2010143
[14] = tested on: Micrococcus luteus AB2010179
Pseudomonas putida = tested on: Pseudomonas putida
[15] = tested on: Salmonella enterica AB2010185
[16] = tested on: Staphylococcus aureus 16472
[17] = tested on: Staphylococcus aureus AB94004
[18] = tested on: Bacillus subtilis ATCC 9372
[19] = tested on: Escherichia coli ATCC 8739
[20] = tested on: Proteus vulgaris NCTC 4635
[21] = tested on: Pseudomonas aeruginosa ATCC 9027
[22] = tested on: Staphylococcus aureus ATCC 6538
Bacillus megaterium F04 = tested on: Bacillus megaterium F04
[23] = tested on: Legionella bozemanae ATCC 33217
[24] = tested on: Legionella feeleii ATCC 35072
[25] = tested on: Legionella longbeachae ATCC 33484
[26] = tested on: Legionella micdadei ATCC 33218
[27] = tested on: Legionella oakridgensis ATCC 33761
[28] = tested on: Legionella pneumophila ATCC 33155
[29] = tested on: Legionella pneumophila ATCC 33215
[30] = tested on: Legionella pneumophila ATCC 33216
[31] = tested on: Legionella pneumophila Corby
[32] = tested on: Legionella pneumophila Lens
[33] = tested on: Legionella pneumophila Paris
Bacillus megaterium Bm11 = tested on: Bacillus megaterium Bm11
[34] = tested on: Bacillus subtilis ATCC 6633
Escherichia coli D21 = tested on: Escherichia coli D21
[35] = tested on: Proteus vulgaris OX19 ATCC 6380
[36] = tested on: Pseudomonas aeruginosa OT97
[37] = tested on: Shigella flexneri ATCC 203
[38] = tested on: Staphylococcus aureus Cowan 1
[39] = tested on: Staphylococcus aureus JC-1

In the case of CC[C@H](C)[C@H](NC(=O)[C@H](CC(C)C)NC(=O)[C@H](CC(C)C)NC(=O)[C@H](CCCCN)NC(=O)[C@H](C)NC(=O)[C@H](CC(C)C)NC(=O)[C@H](CCCCN)NC(=O)[C@@H](NC(=O)[C@H](C)NC(=O)CNC(=O)[C@H](CCSC)NC(=O)[C@H](CO)NC(=O)[C@@H](N)CC(=O)O)C(C)C)C(=O)N[C@@H](CC(=O)O)C(=O)N[C@@H](CCCCN)C(=O)N[C@@H](CCSC)C(=O)N[C@@H](CCCCN)C(=O)N[C@H]1CSSC[C@@H](C(=O)O)NC(=O)[C@H](C)NC(=O)[C@H](CCCCN)NC(=O)[C@H]([C@@H](C)O)NC(=O)[C@H](C(C)C)NC(=O)[C@H](CCC(=O)O)NC1=O [DSMGAVKLAKLLIDKMKCEVTKAC], the MIC [1] was ≥ 60 µM, the MIC [2] was ≥ 40 µM and the MIC [3] was 60 µM (≈ 156 µg/mL). The MIC (Escherichia coli 37) was ≥ 60 µM, the MIC [4] was 10 µM (≈ 25.9 µg/mL) and the MIC [5] was 15 µM (≈ 38.9 µg/mL). The MIC (Klebsiella pneumoniae) was 30 µM (≈ 77.8 µg/mL), the MIC [6] was 23 µM (≈ 59.7 µg/mL) and the MIC [7] was 17 µM (≈ 44.1 µg/mL). For the same compound, the MIC (Pseudomonas aeruginosa) was 23 µM (≈ 59.7 µg/mL), the MIC (Shigella dysenteriae) was ≥ 40 µM and the MIC (Staphylococcus aureus 10) was ≥ 40 µM. The MIC [8] was 17 µM (≈ 44.1 µg/mL).

CC[C@H](C)[C@H](NC(=O)CN)C(=O)N[C@@H](CC(C)C)C(=O)NCC(=O)N[C@@H](CCCCN)C(=O)N[C@@H](CC(C)C)C(=O)N[C@@H](Cc1c[nH]c2ccccc12)C(=O)N[C@@H](CCC(=O)O)C(=O)NCC(=O)N[C@@H](Cc1ccccc1)C(=O)N[C@@H](CCCCN)C(=O)N[C@@H](CO)C(=O)N[C@H](C(=O)N[C@H](C(=O)O)C(C)C)[C@@H](C)CC [GILGKLWEGFKSIV] was tested, and the MIC [9] was ≥ 32 µM, the MIC [10] was 16 µM (≈ 24.8 µg/mL) and the MIC [11] was ≥ 76 µM. For the same compound, the MIC (Enterococcus sp. S13) was 28 µM (≈ 43.3 µg/mL), the MIC [12] was ≥ 62 µM and the MIC [13] was ≥ 87 µM. For the same compound, the MIC [14] was ≥ 32 µM, the MIC (Pseudomonas putida) was ≥ 87 µM and the MIC [15] was ≥ 72 µM. For the same compound, the MIC [16] was 14 µM (≈ 21.7 µg/mL) and the MIC [17] was 8 µM (≈ 12.4 µg/mL).

With CC[C@H](C)[C@H](NC(=O)[C@@H](NC(=O)[C@H](C)NC(=O)[C@H](Cc1ccccc1)NC(=O)[C@H](CC(C)C)NC(=O)CN)C(C)C)C(=O)N[C@@H](CCCCN)C(=O)N[C@@H](CCCCN)C(=O)N[C@H](C(=O)N[C@@H](C)C(=O)N[C@@H](CO)C(=O)N[C@H](C(=O)O)C(C)C)C(C)C [GLFAVIKKVASV] the MIC [18] was ≥ 52 µM, the MIC [19] was ≥ 104 µM and the MIC [20] was ≥ 416 µM. It also gave an MIC [21] of 208 µM (≈ 256 µg/mL) and an MIC [22] of 208 µM (≈ 256 µg/mL).

CC[C@H](C)[C@H](NC(=O)[C@H](CC(C)C)NC(=O)[C@H](CC(=O)O)NC(=O)[C@@H](NC(=O)[C@@H](NC(=O)[C@H](Cc1ccccc1)NC(=O)[C@H](CCC(N)=O)NC(=O)[C@@H](N)CCSC)[C@@H](C)CC)[C@@H](C)O)C(=O)N[C@@H](CCCCN)C(=O)N[C@@H](CCCCN)C(=O)N[C@@H](C)C(=O)N[C@H](C(=O)N[C@@H](CC(=O)O)C(=O)N[C@@H](Cc1ccccc1)C(=O)N[C@@H](Cc1ccccc1)C(=O)N[C@@H](CCCCN)C(=O)NCC(=O)N[C@@H](CC(C)C)C(=O)N[C@@H](Cc1ccccc1)C(=O)NCC(=O)N[C@@H](CC(N)=O)C(=O)N[C@@H](CCCCN)C(=O)O)C(C)C [MQFITDLIKKAVDFFKGLFGNK] showed an MIC (Bacillus megaterium F04) of 4.69 µM (≈ 12 µg/mL), an MIC [23] of 19.5 µM (≈ 50 µg/mL) and an MIC [24] of 19.5 µM (≈ 50 µg/mL). It also gave an MIC [25] of 19.5 µM (≈ 50 µg/mL), an MIC [26] of 19.5 µM (≈ 50 µg/mL) and an MIC [27] of 19.5 µM (≈ 50 µg/mL). The MIC [28] was 19.5 µM (≈ 50 µg/mL), the MIC [29] was 19.5 µM (≈ 50 µg/mL) and the MIC [30] was 19.5 µM (≈ 50 µg/mL). It also gave an MIC [31] of 19.5 µM (≈ 50 µg/mL), an MIC [32] of 1.17 µM (≈ 3 µg/mL) and an MIC [33] of 19.5 µM (≈ 50 µg/mL).

For CC[C@H](C)[C@H](NC(=O)[C@H](CCCCN)NC(=O)[C@@H](NC(=O)[C@@H](NC(=O)[C@H](CCC(N)=O)NC(=O)CNC(=O)[C@H](Cc1cnc[nH]1)NC(=O)[C@H](CCC(N)=O)NC(=O)[C@@H](N)CC(N)=O)C(C)C)C(C)C)C(=O)N[C@@H](Cc1ccccc1)C(=O)N[C@@H](Cc1cnc[nH]1)C(=O)N[C@@H](Cc1cnc[nH]1)C(=O)O [NQHGQVVKIFHH], the MIC (Bacillus megaterium Bm11) was ≥ 800 µM, the MIC [34] was ≥ 3200 µM and the MIC (Escherichia coli D21) was ≥ 3200 µM. The MIC [35] was ≥ 6000 µM, the MIC [36] was ≥ 6000 µM and the MIC [37] was ≥ 6000 µM. For the same compound, the MIC [38] was ≥ 6000 µM and the MIC [39] was ≥ 1600 µM.
